# Experimental data taken from patent publication US12187816B2, “Macrocyclic compounds and methods of use thereof” (Genentech, Inc., priority 2020, dated 2025).
# Starred links: 1 amine or outer side, 2 acyl side, 3 side chain; linkers in the order of their positions; H or OH if unused. Positions of bridges follow the written chain, without caps; N, C: chain ends. Non-standard residues stand in square brackets, D forms with d. Residues, ends and D or L forms follow the SMILES beside them. *: point of attachment. X14 = Cn1cc2c3c(c[nH]c3c1=O)CN(c1ncc(F)cc1F)c1cc(C(=O)*)c(CS(C)(=O)=O)cc1-2; β3hPhg(4-(4-MeThiazol-5-yl)) = Cc1ncsc1-c1ccc([C@@H](CC(=O)[*:2])N[*:1])cc1; JQ1acid = Cc1sc2c(c1C)C(c1ccc(Cl)cc1)=N[C@@H](CC(=O)*)c1nnc(C)n1-2; dPhg(4-(4-Me-thiazol-5-yl)) = Cc1ncsc1-c1ccc([C@@H](N)C(=O)O)cc1; Phg(4-(4-Me-thiazol-5-yl)) = Cc1ncsc1-c1ccc([C@H](N)C(=O)O)cc1; X5 = O=C([C@@H](Cc1ccc(Br)s1)N[*:1])[*:2]; dBip = N[C@H](Cc1ccc(-c2ccccc2)cc1)C(=O)O; X7 = O=C([C@H](Cc1ccc(Br)s1)N[*:1])[*:2]; NHCH2CH2SCH2CO = O=C(CSCCN[*:1])[*:2]; cisHyp = O=C(O)[C@@H]1C[C@H](O)CN1; Hyp = O=C(O)[C@@H]1C[C@@H](O)CN1; Tle = CC(C)(C)[C@H](N)C(=O)O; dDab = NCC[C@@H](N)C(=O)O; dDap = NC[C@@H](N)C(=O)O; PEG1 = NCCOCCC(=O)O; AEA = NCCOCC(=O)O
# Target: T1, BRD4 (Homo sapiens, UniProt O60885)
# T1 construct: Mean 488 intensity of BRD4 quantitated in nuclear region; endogenous in cells; host or cells: EoL-1 eosinophilic leukemia cells
# Experiment: BRD4 degradation assay in EOL1 cells (immunofluorescence imaging)
# Assay type: cell-based
# Conditions: EoL-1 eosinophilic leukemia cells, 4 hours treatment, nuclear BRD4 immunofluorescence
# Procedure: BRD4 Degradation Assay in EOL1 Cells
# EoL-1 eosinophilic leukemia cells were seeded on day 1 at a density of 45,000 cells per well in Corning PureCoat Amine Microplates, (Corning #354719) in 45 μL/well of assay media (RPMI, 10% FBS, containing L-glutamine). After cells attached to cell plate, compounds were serially diluted ⅓ in dimethylsulfoxide (DMSO) to create 20-point dilutions across a 384 well v-bottom polypropylene microplate (Greiner #781091). 2 μL of each sample from the serial dilution was transferred to 98 μL of assay media as an intermediate dilution. 5 μL of each well of the intermediate dilution was added to 45 μL of cell plate. Columns 1, 2, 23 and 24 were treated with only 0.2% final concentration of DMSO for data normalization as “neutral controls”. After compound treatment, cell plates were stored in a 37° C. incubator for 4 hours. After 4 hours cells were fixed in 3.7% w/v final concentration of paraformaldehyde by addition of 15 μL of 16% w/v paraformaldehyde (Electron Microscopy Sciences #15710-S) directly to the 50 μL media and compound in the cell plate. Cell plate was incubated at RT for 20 minutes. Well contents were aspirated and washed with 100 μL/well PBS 3 times. 50 ul/well of phosphate Buffered Saline (PBS) (pH 7.5) containing 0.5% w/v bovine serum albumen, 0.5% w/v Triton X-100 (Block/Permeabilization Buffer) was added to each well. Samples were incubated for 20 minutes. Well contents were aspirated and washed 3 times with 100 μL/well of PBS. PBS was aspirated from the well and 50 μL per well of EoL-1 Block Buffer (PBS containing 10% Normal Goat Serum (AbCam #ab7481)) was added to each well. Plates were incubated at room temperature for 30 minutes. Block buffer was decanted from the wells. Immunofluorescence staining of BRD4 was carried out by diluting mAB Anti-BRD4 [EPR5150] antibody (Abcam 128874) 1:500 into Antibody Dilution Buffer (PBS, 2% Normal Goat Serum). 25 μL per well of BRD4 antibody diluted in buffer was added and incubated overnight at 4° C.
# On day-2 samples were washed 3 times with 100 μL/well of PBS. 25 μL/well of secondary antibody solution (Goat Anti-Rabbit IgG, DyLight 488 Conjugated Highly Cross-adsorbed Thermo Fisher #35553) and Hoechst 33342 1 μg/ml diluted in Antibody Dilution Buffer) were dispensed into each well. Hoechst 33342 only was added to bottom 3 columns for data normalization as “inhibitor controls”. Samples were incubated for 2 hours at room temperature. Samples were washed 3 times with 100 μL PBS. Quantitative fluorescence imaging of BRD4 was carried out using an Opera Phenix High-Content Screening System. Fluorescent images of the samples were captured using 488 nm and 405 nm channels. Hoechst channel was used to identify nuclear region. Mean 488 intensity of BRD4 quantitated in nuclear region. Data analysis was carried out using Genedata Screener, with DMSO and no primary antibody control treated samples being used to define the 0% and 100% changes in BRD4. The dose-response log(inhibitor) vs. response used to define the inflexion point of curve (DC50) and the plateau of the maximal effect.
# The individual topological polar surface area (TPSA) and cLogP values were calculated using Chemdraw v. 15.1 (PerkinElmer). Half life of the ternary VHL/BD1 and VHL/BD2 complexes, DC50 of BRD4 in EOL1 cells, topological polar surface area of a molecule (TPSA) and c log P (lipophilicity) for compounds described herein are provided in Table 3.
row,DC50 [nM],SMILES
1,< 1000,Cc1ncsc1-c1ccc([C@H]2NC(=O)[C@@H]3C[C@@H](O)CN3C(=O)[C@H](C(C)(C)C)NC(=O)CSCCNC(=O)[C@@H](CNC(=O)C[C@@H]3N=C(c4ccc(Cl)cc4)c4c(sc(C)c4C)-n4c(C)nnc43)NC(=O)CNC2=O)cc1 [Compound 46] (cyclo(G[dDap](JQ1acid)[NHCH2CH2SCH2CO][Tle][Hyp][dPhg(4-(4-Me-thiazol-5-yl))]))
2,> 20000,Cc1ncsc1-c1ccc([C@H]2NC(=O)[C@@H]3C[C@@H](O)CN3C(=O)[C@H](C(C)(C)C)NC(=O)CSC[C@H](C(N)=O)NC(=O)[C@@H](CNC(=O)c3cc4c(cc3CS(C)(=O)=O)-c3cn(C)c(=O)c5[nH]cc(c35)CN4c3ncc(F)cc3F)NC(=O)CNC2=O)cc1 [Compound 22] ({CH2CO}-[Tle][Hyp][dPhg(4-(4-Me-thiazol-5-yl))]G[dDap](X14)[dC]-NH2; thioether N-6)
3,< 50,Cc1sc2c(c1C)C(c1ccc(Cl)cc1)=N[C@@H](CC(=O)NC[C@H]1NC(=O)[C@@H](C)NC(=O)[C@@H](Cc3ccc(-c4ccccc4)cc3)NC(=O)[C@@H]3C[C@@H](O)CN3C(=O)[C@H](C(C)(C)C)n3cc(nn3)COCCNC1=O)c1nnc(C)n1-2 [Compound 56]
4,< 1000,Cc1ncsc1-c1ccc([C@H]2CC(=O)NCC(=O)N[C@H](CNC(=O)C[C@@H]3N=C(c4ccc(Cl)cc4)c4c(sc(C)c4C)-n4c(C)nnc43)C(=O)NCCOCC(=O)N[C@@H](C(C)(C)C)C(=O)N3C[C@H](O)C[C@H]3C(=O)N2)cc1 [Compound 55] (cyclo([AEA][Tle][Hyp][β3hPhg(4-(4-MeThiazol-5-yl))]G[dDap](JQ1acid)))
5,> 20000,Cc1ncsc1-c1ccc([C@@H]2NC(=O)[C@@H]3C[C@@H](O)CN3C(=O)[C@H](C(C)(C)C)NC(=O)CSC[C@H](C(N)=O)NC(=O)[C@@H](CCNC(=O)C[C@@H]3N=C(c4ccc(Cl)cc4)c4c(sc(C)c4C)-n4c(C)nnc43)NC(=O)CNC2=O)cc1 [Compound 10] ({CH2CO}-[Tle][Hyp][Phg(4-(4-Me-thiazol-5-yl))]G[dDab](JQ1acid)[dC]-NH2; thioether N-6)
6,< 1000,Cc1sc2c(c1C)C(c1ccc(Cl)cc1)=N[C@@H](CC(=O)NC[C@H]1NC(=O)CNC(=O)[C@@H](Cc3ccc(Br)s3)NC(=O)[C@@H]3C[C@@H](O)CN3C(=O)[C@H](C(C)(C)C)NC(=O)CSC[C@H](C(N)=O)NC1=O)c1nnc(C)n1-2 [Compound 23] ({CH2CO}-[Tle][Hyp][X5]G[dDap](JQ1acid)[dC]-NH2; thioether N-6)
7,< 1000,Cc1sc2c(c1C)C(c1ccc(Cl)cc1)=N[C@@H](CC(=O)NC[C@H]1NC(=O)CNC(=O)[C@H](Cc3ccc(Br)s3)NC(=O)[C@@H]3C[C@@H](O)CN3C(=O)[C@H](C(C)(C)C)NC(=O)CSC[C@H](C(N)=O)NC1=O)c1nnc(C)n1-2 [Compound 20] ({CH2CO}-[Tle][Hyp][X7]G[dDap](JQ1acid)[dC]-NH2; thioether N-6)

row,SMILES,DC50 [nM]
1,Cc1sc2c(c1C)C(c1ccc(Cl)cc1)=N[C@@H](CC(=O)NC[C@H]1NC(=O)[C@@H](C)NC(=O)[C@@H](Cc3ccc(-c4ccccc4)cc3)NC(=O)[C@@H]3C[C@@H](O)CN3C(=O)[C@H](C(C)(C)C)NC(=O)COCCNC1=O)c1nnc(C)n1-2 [Compound 58] (cyclo([AEA][Tle][Hyp][dBip][dA][dDap](JQ1acid))),< 50
2,Cc1ncsc1-c1ccc([C@H]2NC(=O)[C@@H]3C[C@H](O)CN3C(=O)[C@H](C(C)(C)C)NC(=O)CSC[C@H](C(N)=O)NC(=O)[C@@H](CNC(=O)C[C@@H]3N=C(c4ccc(Cl)cc4)c4c(sc(C)c4C)-n4c(C)nnc43)NC(=O)CNC2=O)cc1 [Compound 27] ({CH2CO}-[Tle][cisHyp][dPhg(4-(4-Me-thiazol-5-yl))]G[dDap](JQ1acid)[dC]-NH2; thioether N-6),> 20000
3,Cc1ncsc1-c1ccc([C@H]2NC(=O)[C@@H]3C[C@@H](O)CN3C(=O)[C@H](C(C)(C)C)NC(=O)CCOCCNC(=O)[C@@H](CNC(=O)C[C@@H]3N=C(c4ccc(Cl)cc4)c4c(sc(C)c4C)-n4c(C)nnc43)NC(=O)CNC2=O)cc1 [Compound 32] (cyclo(G[dDap](JQ1acid)[PEG1][Tle][Hyp][dPhg(4-(4-Me-thiazol-5-yl))])),> 20000
